Reference: patent US20090137613A1, “PHARMACEUTICALLY ACCEPTABLE SALTS AND POLYMORPHIC FORMS” (priority 2006, published 2009)
Counter-ions that a name gives are not always drawn. Like-named read-outs stand apart in the source and are kept apart here. One block for each compound: values may come before it.

Assays:
[1] = cited from earlier work; for bioavailability: oral, valacyclovir in comparison to acyclovir
[2] = Thermogravimetric analysis (TGA), thermally induced weight loss / thermal stability; type: physicochemical
Text: Polymorph I of valacyclovir mesylate according to the present invention is further characterised by a typical TGA thermograph, or substantially the same TGA thermograph, as shown in FIG. 3. As used herein, the term “TGA” refers to thermogravimetric analysis. […] TGA is restricted in transitions that involve either a gain or a loss of mass and it is most commonly used to study desolvation processes and compound decomposition.
FIG. 3: Typical TGA thermograph of polymorph I of valacyclovir mesylate obtained by using thermogravimetric analysis (TGA) using TGA 7 manufactured by Perkin-Elmer. The experiments were done under flow of nitrogen (35 ml/min) and heating rate was 10° C./min.

[3] = Dynamic vapour sorption (DVS), moisture sorption / hygroscopicity; type: physicochemical
Text: DVS is a measure of the water vapour or moisture sorption of a material under varying conditions of humidity and it can be used as a measure of the hygroscopicity of a given material. The DVS data as described herein was obtained using the Dynamic Vapour Sorption (DVS) methodology developed by Surface Measurement Systems (SMS) Ltd. for the rapid quantitative analysis of the water sorption properties of solids including pharmaceutical materials. The Surface Measurement Systems DVS instrument rapidly measures uptake and loss of moisture by flowing a carrier gas at a specified relative humidity (RH) over a sample (1 mg-1.5 g) suspended from the weighing mechanism of a Cahn D-200 ultra sensitive recording microbalance. This particular microbalance is used because it is capable of measuring changes in sample mass lower than 1 part in 10 million and provides the long-term stability as required for the accurate measurement of vapour sorption phenomena, which may take from minutes to days to complete depending upon the sample size and material. Indeed, a major factor in determining the water sorption behaviour of materials is the need to establish rapid water sorption equilibrium, therefore the DVS instrument allows sorption behaviour to be accurately determined on very small sample sizes (typically 10 mg), thus minimising the equilibration time required. One of the most critical factors for any instrumentation used for investigating moisture sorption behaviour is the temperature stability of the measurement system. The main DVS instrument systems as used herein are, therefore, housed in a precisely controlled constant temperature incubator with a temperature stability of ±0.1° C. This ensures very good instrument baseline stability as well as accurate control of the relative humidity generation. The required relative humidities are generated by accurately mixing dry and saturated vapour gas flows in the correct proportions using mass flow controllers. Humidity and temperature probes are situated just below the sample and reference holders to give independent verification of system performance. The microbalance mechanism is very sensitive to sorption and desorption of moisture. A constant dry gas purge to the balance head is, therefore, provided to give the best performance in terms of baseline stability. The purge flow is manually controlled such that in the event of a power failure, condensation of moisture in the balance head cannot occur. The DVS instrument is fully automated.

[4] = cited from earlier work
[5] = at about 90% relative humidity (RH)
[6] = temperature range of about 30-175° C.

stable to a temperature of (thermal stability confirmed by TGA) [2]: about 150 °C | TGA weight loss ([2]; temperature range of about 30-140° C.): about 9.2%
Compound: valacyclovir fumarate [Polymorph II of valacyclovir fumarate]

stable to a temperature of (thermal stability confirmed by TGA) ([2]; solid form as prepared): about 200 °C | TGA weight loss ([2]; temperature range of about 30-165° C.): about 2.5% | dynamic vapour sorption (DVS) [3, 5]: about 3.6%
Compound: valacyclovir mesylate [Polymorph I of valacyclovir mesylate]

stable to a temperature of (thermal stability confirmed by TGA) ([2]; solid form as prepared): about 200 °C | TGA weight loss ([2]; temperature range of about 30-200° C.): no TGA weight loss | dynamic vapour sorption (DVS) ([3]; at about 80% RH): about 1.0% | dynamic vapour sorption (DVS) [3, 5]: about 5.1%
Compound: valacyclovir phosphate [Polymorph I of valacyclovir phosphate]

TGA weight loss [2, 6]: about 6.8%
Compound: valacyclovir phosphate [Polymorph II of valacyclovir phosphate]

TGA weight loss [2, 6]: about 2.1% | dynamic vapour sorption (DVS) [3, 5]: about 5.2%
Compound: valacyclovir phosphate [Polymorph III of valacyclovir phosphate]

Continued, compound first:

Compound: Nc1nc2c(ncn2COCCO)c(=O)[nH]1 [Acyclovir, 9-[(2-hydroxyethoxy)methyl]guanine]
bioavailability [1]: low bioavailability

Compound: CC(C)[C@H](N)C(=O)OCCOCn1cnc2c(=O)[nH]c(N)nc21 [Polymorph I of valacyclovir base, L-valine 2-[(2-amino-1,6-dihydro-6-oxo-9H-purin-9-yl)methoxy]ethyl ester]
stable to a temperature of (thermal stability confirmed by TGA) ([2]; solid form as prepared): about 200 °C | TGA weight loss ([2]; temperature range of about 200° C.): no TGA weight loss | dynamic vapour sorption (DVS) [3, 5]: about 0.4%

Compound: CC(C)[C@H](N)C(=O)OCCOCn1cnc2c(=O)[nH]c(N)nc21 [valacyclovir hydrochloride]
solubility in water [4]: moderately soluble

Compound: CC(C)[C@H](N)C(=O)OCCOCn1cnc2c(=O)[nH]c(N)nc21 [valacyclovir, L-valine 2-[(2-amino-1,6-dihydro-6-oxo-9H-purin-9-yl)methoxy]ethyl ester]
absorption from the gastrointestinal tract ([1]; after oral administration): rapidly absorbed | bioavailability [1]: improved bioavailability

Compound: valacyclovir citrate [Polymorph I of valacyclovir citrate]
stable to a temperature of (thermal stability confirmed by TGA) ([2]; solid form as prepared): about 180 °C | TGA weight loss ([2]; temperature range of about 30-80° C.): about 2.6%

Compound: valacyclovir fumarate [Polymorph I of valacyclovir fumarate]
stable to a temperature of (thermal stability confirmed by TGA) ([2]; solid form as prepared): about 200 °C | TGA weight loss ([2]; temperature range of about 30-100° C.): about 0.9%

Compound: valacyclovir maleate [Polymorph I of valacyclovir maleate]
stable to a temperature of (thermal stability confirmed by TGA) ([2]; solid form as prepared): about 160 °C | TGA weight loss ([2]; temperature range of about 30-150° C.): about 5.3%
